According to patent publication US9126993B2, “Glucosylceramide synthase inhibitors” (GENZYME CORPORATION, priority 2011, dated 2015):
Entries after “also recorded” stand apart in the source; their conditions may differ.

Tests used:
K14 mice [1] = assay: Survival of K14 mice; assay type: in vivo, mouse; details: GZ 161 5 mg/kg IP daily from P4, combination: plus ICV rhGC at P1, 2, 3
Experimental: To determine if further benefits could be achieved by prenatal exposure to GZ 161, a subset of pregnant K14 females received GZ 161 in food using a formulation calculated to provide 20 mg/kg/day during the final 5-7 days of gestation. Females receiving GZ 161 were switched to standard diet after delivery and the pups received daily IP injections of GZ 161 at a dose of 5 mg/kg (10 μl per gram of body weight) starting at P 1. A set of WT pups born to females receiving the drug or standard formula was sacrificed immediately after birth to determine whether in utero exposure to GZ 161 could reduce brain GSL levels.
An animal model of neuropathic Gaucher disease (nGD) identified as K14 were cryoanesthesized and received 2 μl bilateral intracerebroventricular (ICV) injections of either rhGC at 2 mg/ml or vehicle as previously described. (Cabrera-Salazar et al. (2010)) The injected pups were monitored for recovery and returned to the mother following the procedure.
K14 mice received daily intraperitoneal injections of GZ 161 at a dose of 5 mg/kg of body weight as described above. A separate cohort of animals also received ICV injections of GC at postnatal days 1, 2 and 3 followed by daily IP injections of GZ 161. […] All animals were monitored daily for the development of neurological complications. […] This time point was recorded as end of life and analyzed using Kaplan-Meier plots. […]

K14 mice [2] = assay: Brain histopathology (CD68, F4/80, GFAP staining) in K14 mice; assay type: in vivo, mouse; details: daily IP from P4, staining at P10, vs vehicle
Experimental: After genotype confirmation, animals were humanely sacrificed at 10 days of age, At this age K14 mice are asymptomatic. Mice received an intraperitoneal injection of 150 mg/kg sodium pentobarbital ((Euthasol, Virbac Inc, Fort Worth, Tex.) and were perfused by an intracardial infusion of chilled 0.9% sodium chloride. Brains were removed and post fixed in 4% paraformaldehyde for 72 hours. Tissue was transferred to PBS and paraffin embedded. Sagital sections 5 μm thick were cut and stained as described below. Gliosis and the presence of cells of the macrophage lineage were evaluated by means of glial fibrillary acidic protein staining and expression of CD68 and F4/80 pan-macrophage markers using the Leica Bond Max Immunostainer system (Leica Microsystems, Wetzlar, Germany).
GFAP staining: Paraffin sections were placed on mounting slides and processed using the Bond Polymer Refine IHC system (Leica Microsystems, Wetlzar, Germany) blocked for 10 minutes in serum-free protein block (Dako systems, Glostrup, Denmark), incubated for 30 minutes in a 1:1500 dilution of primary anti-GFAP antibody in Dako antibody diluent (Dako, Glostrup, Denmark), and stained using the Bond Polymer Refine detection kit (Leica Microsystems, Wetzlar, Germany). […]
For each staining technique exposure-matched digital images were obtained from similar brain regions of each experimental group using the Aperio ScanScope XT system (Aperio Technologies, Vista, Calif.). Stained slides were digitalized in high resolution and six areas of interest were highlighted in each slide and analyzed independently by histomorphometry. Positively stained area and nuclei were determined and quantitative data were analyzed by a one-way analysis of variance followed by Tukey's multiple comparison test using the Graph Pad Prism V 4.0 (GraphPad Software, San Diego, Calif.). […]

K14 mice [3] = assay: Brain GluCer and GluSph levels in K14 mouse model of type 2 Gaucher disease; assay type: in vivo
Experimental: Newborn mice received daily 5 mg/kg intraperitoneal injections of Quinuclidin-3-yl(2-(4′-fluoro-[1, l′-biphenyl]-3-yl)propan-2-yl)carbamate (hereinafter “GZ 161”) in a volume of 10 μl/gram of body weight starting at postnatal day 4. K14 mice and wild type littermates were humanely sacrificed at postnatal day 10 (pre-symptomatic) and at day 14 (humane endpoint) to evaluate glycosphingolipid (GSL) levels. Mice received a 150 mg/kg dose of pentobarbital (Euthasol, Virbac Inc, Fort Worth, Tex.) and were transcardially perfused with cold 0.9% NaCl solution. Brains were dissected and divided; one hemisphere was used for GSL analysis and the other was fixed in 4% paraformaldehyde for 96 hours and processed for histology.
Quantitative sphingolipid analysis was performed by liquid chromatography and tandem mass spectrometry (LC/MS/MS) as previously described in Merrill et al., Methods 36: 207-224 (2005). Briefly, 10 μl of brain tissue homogenate (tissue weight/water:100 mg/ml) was extracted with 1.00 ml of an organic solvent mixture (97% acetonitrile, 2% methanol, and 1% acetic acid, v/v) and vortexed vigorously for 10 min. Extracted sphingolipids (GluCer and GluSph) were directly separated by hydrophilic liquid chromatography (Atlantis HILIC column, Waters Corp.) and analyzed by triple quadrupole tandem mass spectrometry (API 4000, Applied Biosystems/MDS SCIEX) and compared with sphingolipid standards (Matreya, LLC; Pleasant Gap, Pa.)

[4] = K14 mice, 5 mg/kg IP daily from P4, brains analyzed at P10
[5] = daily IP, compared to vehicle-treated K14 mice at the humane endpoint (14-15 days of age)

CC(C)(NC(=O)OC1CN2CCC1CC2)c1cccc(-c2ccc(F)cc2)c1 (stereo not shown) [GZ 161, Quinuclidin-3-yl(2-(4′-fluoro-[1,1′-biphenyl]-3-yl)propan-2-yl)carbamate]
median lifespan (K14 mice [1]): 18 days
CD68+ cells in brain (hippocampus, thalamus, brainstem, cerebellum) (K14 mice [2]): reduces the numbers of CD68+ cells in all of these locations; also recorded: significant reductions the CD68+ cells in all brain regions
F4/80+ cells in brain (K14 mice [2]): reduced the numbers of F4/80+ cells in the thalamus and brainstem, but had marginal effects in other brain regions; also recorded: significant reductions the F4/80+ cells in the thalamus and brainstem
GFAP staining (gliosis) in brain (K14 mice [2]): decreased GFAP staining in the hippocampus and cerebellum; also recorded: significant reductions the GFAP+ cells in the hippocampus and cerebellum
brain GluCer level reduction (K14 mice [3]; [4]): ~70%
brain GluSph level reduction (K14 mice [3]; [4]): ~60%
brain GluCer level reduction (K14 mice [3]; [5]): > 60%
brain GluSph level reduction (K14 mice [3]; [5]): > 60%
symptom status of treated K14 mice (K14 mice [3]; daily IP, time point of brain analysis): asymptomatic
crossing the blood brain barrier (K14 mice [3]; inferred from reduction of brain glycosphingolipids after systemic (IP) administration): capable of crossing the blood brain barrier
